Results as given in patent US11660342B2, “Method for increasing permeability of blood-brain barrier” (POSTECH Research and Business Development Foundation, priority 2020, dated 2023).

Legend:
[1] = Ultrasound-responsive NO release, real-time NO analysis; format: physicochemical; settings: FIG. 5
Experimental: Subsequently, ultrasound-responsive NO release of the nanogenerator was monitored under physiological conditions (DPBS, pH 7.4, 37° C.). When ultrasound was absent, only a small overall amount (1.53 nmol/mg) of NO was released.

[2] = Behaviour in water (aggregation, solubility); format: physicochemical

ultrasound-responsive nitric oxide release behavior [1]: complete NO-releasability
water solubility [2]: water-insoluble
SMILES: CCC(C)N(N=O)c1ccc(N(N=O)C(C)CC)cc1 (centres unmarked) [BNN6, N,N′-di-sec-butyl-N,N′-dinitroso-1,4-phenylenediamine]
